These results are taken from ChEMBL document CHEMBL1201862, “PubChem BioAssay data set” (2004).

Test systems include UACC-62; OVCAR-5; SN12C; EKVX; ACHN; SW-620; RXF 393; SF-295; HOP-92; MOLT-4; KM12; CAKI-1; A498; A549; Malme-3M.
Common to all, as to experiment: inhibition of tumour cell growth, NCI panel, 48 h

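Assay format: 96-well plates, 48-hour exposure. GI50 is the concentration that inhibits growth by half.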 Activity calls are given as the source filed them. No stated cut-off is given here; in the data, active = GI50 up to about 1.1 µM and inactive = higher.

With `COc1ccc2c(c1)c(=O)c1c(NCCN(C)C)ccc3nnn2c31`, the GI50 in the assay with UACC-62 is 4.71 µM (inactive); in the assay on OVCAR-5 it was 4.06 µM (inactive); in the assay on SN12C, 2.49 µM (inactive); in the assay on EKVX, 2.05 µM (inactive); in the assay with ACHN it was 2.4 µM (inactive); with SW-620, 0.7 µM (active). The GI50 in the assay on RXF 393 is 0.0272 µM (active); with SF-295, 2.11 µM (inactive); with HOP-92 it was 2.19 µM (inactive); with MOLT-4, 0.321 µM (active); with KM12 it was 1.11 µM (active); in the assay with CAKI-1 it was 3.01 µM (inactive). Besides, the figures for the GI50 in the assay on A498, in the assay with A549 and with Malme-3M were 9.51 µM (inactive), 2.21 µM (inactive) and 3.94 µM (inactive), respectively.
Consider `C=C1C(=O)OC2C=C(CCC(C)=O)C(C)C(OC(C)=O)CC12` (configuration not stated), for which the GI50 in the assay on UACC-62 is 12.6 µM (inactive); in the assay on OVCAR-5 it was 16.1 µM (inactive); in the assay on SN12C, 15.7 µM (inactive); in the assay on EKVX, 12.9 µM (inactive); in the assay with ACHN it was 6.84 µM (inactive); in the assay on SW-620, 0.313 µM (active). The GI50 in the assay with RXF 393 was 2.41 µM (inactive); in the assay with SF-295 it was 17.7 µM (inactive); in the assay with HOP-92, 3.99 µM (inactive); in the assay on MOLT-4, 6.1 µM (inactive); with KM12, 16.1 µM (inactive); in the assay with CAKI-1 it was 8.83 µM (inactive). Also, the GI50 with A498 was 16.1 µM (inactive); with A549, 22.2 µM (inactive); with Malme-3M it was 11.2 µM (inactive).
Regarding `Cc1cc(C)nc(NS(=O)(=O)c2ccc(NC(=O)c3cccc4cc5ccccc5nc34)cc2)n1`, the GI50 in the assay on UACC-62 was 20 µM (inactive); in the assay with OVCAR-5, 62.2 µM (inactive); in the assay on SN12C it was 28.5 µM (inactive); in the assay on EKVX, 69.8 µM (inactive); in the assay with ACHN it was 44.3 µM (inactive); with SW-620, 32.7 µM (inactive). Also, the GI50 in the assay with RXF 393 is 23.1 µM (inactive); with SF-295, 30.1 µM (inactive); with MOLT-4, 19.6 µM (inactive); in the assay on KM12, 24.5 µM (inactive); in the assay with CAKI-1, 50.9 µM (inactive); in the assay on A498, 21.3 µM (inactive). In addition, the GI50 is 34.3 µM (inactive) in the assay with A549 and 23.4 µM (inactive) in the assay with Malme-3M.
As for `Cc1ccc(/C=N/NS(=O)(=O)c2ccccc2)cc1`, the GI50 in the assay on UACC-62, in the assay on OVCAR-5, in the assay on SN12C, in the assay on EKVX, with ACHN and in the assay with SW-620 was > 100 µM (inactive) throughout. Besides, the GI50 in the assay on RXF 393 was > 100 µM (inactive); in the assay on SF-295, 74 µM (inactive); with HOP-92, > 100 µM (inactive); in the assay with MOLT-4 it was > 100 µM (inactive); with KM12, > 100 µM (inactive); in the assay with CAKI-1 it was > 100 µM (inactive). For the same compound, the GI50 in the assay with A498, in the assay on A549 and in the assay on Malme-3M was > 100 µM (inactive) in each case.
Consider `C=CCC1(CN(C)C)CC/C(=C\c2ccc(Cl)cc2)C1=O` (configuration not stated), for which the GI50 is 49.9 µM (inactive) in the assay with UACC-62; > 77.4 µM (inactive) in the assay on OVCAR-5; 70.1 µM (inactive) with SN12C; 38.9 µM (inactive) in the assay on EKVX; 44.8 µM (inactive) with ACHN; 26.9 µM (inactive) in the assay on SW-620. Besides, the GI50 is 31 µM (inactive) in the assay on RXF 393; 35.5 µM (inactive) in the assay on SF-295; 66.8 µM (inactive) with HOP-92; 17.9 µM (inactive) in the assay on MOLT-4; 29.5 µM (inactive) in the assay with KM12; > 100 µM (inactive) in the assay with CAKI-1. Moreover, the GI50 was 37.2 µM (inactive) with A498, 59.6 µM (inactive) in the assay on A549 and > 74.5 µM (inactive) in the assay with Malme-3M.
As for `COC(=O)CCSC(=O)Nc1ccccc1Cl`, the GI50 with UACC-62, in the assay on OVCAR-5, with SN12C, with EKVX, in the assay with ACHN and in the assay with SW-620 was > 100 µM (inactive) throughout. The GI50 in the assay with SF-295, in the assay with MOLT-4, with KM12, in the assay on CAKI-1, in the assay with A498 and in the assay with A549 was > 100 µM (inactive) throughout.
`CC(=O)OC[C@@H]1[C@H]2CC(=O)O[C@H]2C[C@H]1OC(C)=O`: the GI50 with UACC-62, with OVCAR-5, in the assay with SN12C, with EKVX, in the assay on ACHN and in the assay on SW-620 was > 100 µM (inactive) throughout. Further, the GI50 in the assay on RXF 393, in the assay on SF-295, in the assay with HOP-92, with MOLT-4, in the assay with KM12 and in the assay with CAKI-1 was > 100 µM (inactive) each time. In addition, the GI50 in the assay with A498, in the assay with A549 and with Malme-3M was > 100 µM (inactive) each time.
For the compound `COC1OC(C)C2OC(C)(C)OC2C1OC(C)=O` (configuration not stated), the GI50 in the assay on UACC-62 is > 100 µM (inactive); in the assay on OVCAR-5 it was > 100 µM (inactive); in the assay on SN12C, > 100 µM (inactive); in the assay on ACHN, > 100 µM (inactive); with SW-620, > 100 µM (inactive); in the assay with RXF 393, 39.7 µM (inactive). Also, the GI50 in the assay with SF-295, with HOP-92, in the assay on MOLT-4, in the assay with KM12, in the assay on CAKI-1 and in the assay on A498 was > 100 µM (inactive) throughout. The GI50 with A549 and in the assay with Malme-3M was > 100 µM (inactive) each time.
With `O=C1C(=Cc2cccs2)C(=O)N(CCc2ccccc2)S(=O)(=O)N1CCc1ccccc1`, the GI50 was > 50 µM (inactive) in the assay with UACC-62; > 50 µM (inactive) in the assay on OVCAR-5; > 50 µM (inactive) in the assay on SN12C; > 50 µM (inactive) in the assay on EKVX; 22.6 µM (inactive) in the assay with ACHN; > 50 µM (inactive) with SW-620. Further, the GI50 in the assay on RXF 393 was 20.7 µM (inactive); with SF-295, > 50 µM (inactive); in the assay with HOP-92, > 50 µM (inactive); in the assay with MOLT-4 it was > 50 µM (inactive); with KM12, > 50 µM (inactive); in the assay on A549 it was > 50 µM (inactive). In addition, the GI50 with Malme-3M was > 50 µM (inactive).
`O=C(CC1(O)C(=O)Nc2c(Cl)cc(Cl)cc21)c1ccc(F)cc1` (configuration not stated): the GI50 was 35.8 µM (inactive) with UACC-62; 64.7 µM (inactive) in the assay on OVCAR-5; 28.4 µM (inactive) in the assay with SN12C; 68.7 µM (inactive) in the assay on EKVX; 35.9 µM (inactive) in the assay with ACHN; 43.7 µM (inactive) in the assay with SW-620. The GI50 in the assay with RXF 393 is 27 µM (inactive); in the assay with SF-295, 34.7 µM (inactive); in the assay with HOP-92, 47.1 µM (inactive); in the assay on KM12, 37.2 µM (inactive); in the assay with CAKI-1, 92 µM (inactive); in the assay with A549 it was 59 µM (inactive). Moreover, the GI50 with Malme-3M was 41.9 µM (inactive).
Regarding `COC1(C)C(=O)N2C1N(C(=O)OCc1ccccc1)CC2(C)C` (configuration not stated), the GI50 in the assay on UACC-62, with SN12C, with EKVX, with ACHN, with SW-620 and in the assay with RXF 393 was > 100 µM (inactive) each time. The GI50 with SF-295, with MOLT-4, with A498, in the assay on A549 and with Malme-3M was > 100 µM (inactive) throughout.
As to `O=C(N/C(=C\c1cccc([N+](=O)[O-])c1)c1nc2c3c(ccc2[nH]1)C(=O)c1ccccc1C3=O)c1ccccc1`, the GI50 was 55.2 µM (inactive) in the assay with UACC-62; 26.5 µM (inactive) in the assay with OVCAR-5; 28 µM (inactive) in the assay on SN12C; 12.8 µM (inactive) with EKVX; 16.6 µM (inactive) in the assay with ACHN; 45.5 µM (inactive) in the assay on SW-620. Further, the GI50 in the assay on HOP-92 was 32.4 µM (inactive); with KM12, 14.5 µM (inactive); with CAKI-1, 7.18 µM (inactive); with A498 it was 83 µM (inactive); in the assay with A549, 30.9 µM (inactive); with Malme-3M, 40.7 µM (inactive).
Consider `Cc1cccc(/N=C/c2ccc(N(CCC#N)S(=O)(=O)c3ccccc3)cc2C)c1`, for which the GI50 is 26.1 µM (inactive) in the assay with UACC-62; > 100 µM (inactive) in the assay with OVCAR-5; > 100 µM (inactive) in the assay on SN12C; > 100 µM (inactive) with EKVX; 88.3 µM (inactive) in the assay on ACHN; > 100 µM (inactive) in the assay on SW-620. The GI50 in the assay with SF-295 is > 100 µM (inactive); in the assay on HOP-92 it was 33.3 µM (inactive); in the assay on MOLT-4, 29.2 µM (inactive); with KM12, > 100 µM (inactive); with CAKI-1, > 100 µM (inactive); in the assay on A498 it was > 100 µM (inactive). The GI50 in the assay with A549 and with Malme-3M was > 100 µM (inactive) in each case.
`CC1(C)C(O)OC(O)C1(C)C` (configuration not stated): the GI50 in the assay with UACC-62 was 91 µM (inactive); in the assay on OVCAR-5, > 100 µM (inactive); with SN12C, 82.2 µM (inactive); in the assay on EKVX, > 100 µM (inactive); with ACHN it was > 100 µM (inactive); with SW-620, 49.7 µM (inactive). In addition, the GI50 is 32.6 µM (inactive) in the assay on RXF 393; > 100 µM (inactive) in the assay on SF-295; > 100 µM (inactive) with HOP-92; 49.2 µM (inactive) in the assay with MOLT-4; > 100 µM (inactive) in the assay with KM12; > 100 µM (inactive) with CAKI-1. Further, the GI50 in the assay on A549 and with Malme-3M was > 100 µM (inactive) in each case.
